According to patent US20210038753A1, “BIOLOGICAL STERILIZATION INDICATOR WITH STERILANT RESISTANCE MODULATOR” (3M INNOVATIVE PROPERTIES COMPANY, priority 2014, published 2021):

What was measured:
[1] = test system: Geobacillus stearothermophilus spores; assay: Resistance of self-contained biological indicators to hydrogen peroxide sterilization, growth readout by pH colour change (GRO+); assay type: cell-based
Method: (§1) PET film (.09 mm thick) was coated with colloidal silica as described in International Publication No. WO2014/189716, which is incorporated herein by reference in its entirety. […] Separate aqueous spore coating solutions were prepared as described in Example 1 with the amino acids shown in table 4 present in the coating solutions. Two microliter aliquots (containing at least 10^6 spores) of the respective spore coating solutions were deposited onto the silica-coated PET film, forming a series of spaced-apart spots on the film. The spore coated films were dried in a 60° C. incubator for 12 minutes. Circular discs (hereinafter, “coated carriers”) of the PET film, each disc including one of the dried spots, were punched out and were used to assemble self-contained biological indicators (BI) similar to that shown in FIG. 1 of International Publication No. WO2014/189716. The coated carriers described above were placed into the “spore carrier 135” shown in FIG. 1 of International Publication No. WO2014/189716. Each self-contained BI comprised a polycarbonate outer container, a breaker, a cap, and a cap filter. Disposed inside the outer container were a coated carrier along with an ampoule media containing the nutrient medium from 3M ATTEST 1292 Rapid Readout Biological Indicators plus 5g/L methionine (as described in Example 1).
(§2) The self-contained biological indicators with different concentrations of additives (Table 4) were exposed to hydrogen peroxide sterilization in STERRAD NX sterilizer. The sterilization processes were run by manually injecting 1.0 ml of 59% hydrogen peroxide per load, unless specified otherwise. The exposure time was varied to determine the resistance profile of self-contained BIs with different additive formulations. The BIs were activated by pressing down the cap to break the media ampoule. The activated BIs were placed in a bench-top fluorimeter (3M Company, St. Paul, Minn.) to detect fluorescence.
(§3) A self-contained BI that is not completely inactivated (i.e., not all of the spores are killed by the sterilization process) will resume cellular functions upon activation of the BI. The production of glucosidase enzyme by surviving spores is an indication that at least one of the spores have not been inactivated (killed) by the sterilization process. The glucosidase enzyme cleaves the 4-methylumbelliferyl-glucoside (MUG) releasing the fluorescent methyl umbelliferone, which is detected using a bench-top fluorimeter. Growth and proliferation of spores in the self-contained biological indicator can also be detected by a pH change, which may be detected by a color change of the pH indicator in the growth medium.
(§4) Self-contained biological indicators were prepared (with various additives listed in table 4) as described above in this Example. For each additive tested, a lower range and a higher range was used as a preliminary screen to identify additives modulated the resistance of the spores to the sterilant. Five self-contained BIs representing each condition were exposed to hydrogen peroxide sterilization in STERRAD NX sterilizer. The sterilization processes used a constant injection volume (1.0 ml of 59% hydrogen peroxide) and various times (e.g., 20 seconds to 7 minutes) of exposure to the hydrogen peroxide. The self-contained BIs were activated after exposure to the sterilization process and were monitored for fluorescence using a bench-top fluorimeter) and pH based color change (visually). […]
(§5) Self-contained biological indicators (with various additives listed in table 5) were prepared as described in Example 2. The self-contained biological indicators were exposed to hydrogen peroxide in a STERRAD NX sterilizer as described in Example 2. The self-contained BIs were activated after exposure to the sterilization process and were monitored for fluorescence using a bench-top fluorimeter and pH based color change (visually).

[2] = test system: Geobacillus stearothermophilus spores; assay: Resistance of self-contained biological indicators to hydrogen peroxide sterilization, glucosidase enzyme activity fluorescence readout (ENZ+); assay type: cell-based
Method: as §1, §2, §3, §4, §5

[3] = Table 4, modulator 0.01 weight percent in spore coating solution, H2O2 exposure 30 sec.
[4] = Table 4, modulator 0.01 weight percent in spore coating solution, H2O2 exposure 60 sec.
[5] = Table 4, modulator 0.01 weight percent in spore coating solution, H2O2 exposure 90 sec.
[6] = Table 4, modulator 0.01 weight percent in spore coating solution, H2O2 exposure 3 min.
[7] = Table 4, modulator 0.01 weight percent in spore coating solution, H2O2 exposure 7 min.
[8] = Table 4, modulator 0.1 weight percent in spore coating solution, H2O2 exposure 30 sec.
[9] = Table 4, modulator 0.1 weight percent in spore coating solution, H2O2 exposure 60 sec.
[10] = Table 4, modulator 0.1 weight percent in spore coating solution, H2O2 exposure 90 sec.
[11] = Table 4, modulator 0.1 weight percent in spore coating solution, H2O2 exposure 3 min.
[12] = Table 4, modulator 0.1 weight percent in spore coating solution, H2O2 exposure 7 min.
[13] = Table 5, modulator 0.05 weight percent in spore coating solution, H2O2 exposure 20 sec.
[14] = Table 5, modulator 0.05 weight percent in spore coating solution, H2O2 exposure 30 sec.
[15] = Table 5, modulator 0.05 weight percent in spore coating solution, H2O2 exposure 60 sec.
[16] = Table 5, modulator 0.05 weight percent in spore coating solution, H2O2 exposure 90 sec.
[17] = Table 5, modulator 0.05 weight percent in spore coating solution, H2O2 exposure 3 min.
[18] = Table 5, modulator 0.05 weight percent in spore coating solution, H2O2 exposure 7 min.
[19] = Table 5, modulator 0.1 weight percent in spore coating solution, H2O2 exposure 20 sec.
[20] = Table 5, modulator 0.1 weight percent in spore coating solution, H2O2 exposure 30 sec.
[21] = Table 5, modulator 0.1 weight percent in spore coating solution, H2O2 exposure 60 sec.
[22] = Table 5, modulator 0.1 weight percent in spore coating solution, H2O2 exposure 90 sec.
[23] = Table 5, modulator 0.1 weight percent in spore coating solution, H2O2 exposure 3 min.
[24] = Table 5, modulator 0.1 weight percent in spore coating solution, H2O2 exposure 7 min.
[25] = Table 5, modulator 0.2 weight percent in spore coating solution, H2O2 exposure 20 sec.
[26] = Table 5, modulator 0.2 weight percent in spore coating solution, H2O2 exposure 30 sec.
[27] = Table 5, modulator 0.2 weight percent in spore coating solution, H2O2 exposure 60 sec.
[28] = Table 5, modulator 0.2 weight percent in spore coating solution, H2O2 exposure 90 sec.
[29] = Table 5, modulator 0.2 weight percent in spore coating solution, H2O2 exposure 3 min.
[30] = Table 5, modulator 0.2 weight percent in spore coating solution, H2O2 exposure 7 min.
[31] = Table 5, modulator 0.4 weight percent in spore coating solution, H2O2 exposure 20 sec.
[32] = Table 5, modulator 0.4 weight percent in spore coating solution, H2O2 exposure 30 sec.
[33] = Table 5, modulator 0.4 weight percent in spore coating solution, H2O2 exposure 60 sec.
[34] = Table 5, modulator 0.4 weight percent in spore coating solution, H2O2 exposure 90 sec.
[35] = Table 5, modulator 0.4 weight percent in spore coating solution, H2O2 exposure 3 min.
[36] = Table 5, modulator 0.4 weight percent in spore coating solution, H2O2 exposure 7 min.
[37] = Table 5, modulator 0.8 weight percent in spore coating solution, H2O2 exposure 20 sec.
[38] = Table 5, modulator 0.8 weight percent in spore coating solution, H2O2 exposure 30 sec.
[39] = Table 5, modulator 0.8 weight percent in spore coating solution, H2O2 exposure 60 sec.
[40] = Table 5, modulator 0.8 weight percent in spore coating solution, H2O2 exposure 90 sec.
[41] = Table 5, modulator 0.8 weight percent in spore coating solution, H2O2 exposure 3 min.
[42] = Table 5, modulator 0.8 weight percent in spore coating solution, H2O2 exposure 7 min.

Compound: N[C@@H](Cc1c[nH]cn1)C(=O)O [L-histidine]
- sensitivity of the biological indicator to the sterilization process relative to the control with no additives ([1]; Example 2 / Comparative Example 1 (Table 4), fluorescence and growth readouts): increased sensitivity (decreased resistance)
- sensitivity of the spores to the damaging/lethal effects of the sterilization process relative to the control with no additives ([1]; Example 3 (Table 5), fluorescence and growth readouts): increased sensitivity
- percentage of self-contained biological indicators positive for growth (GRO+) [1, 3]: 80%
- percentage of self-contained biological indicators positive for growth (GRO+) [1, 4]: 0%
- percentage of self-contained biological indicators positive for growth (GRO+) [1, 5]: 0%
- percentage of self-contained biological indicators positive for growth (GRO+) [1, 6]: 0%
- percentage of self-contained biological indicators positive for growth (GRO+) [1, 7]: 0%
- percentage of self-contained biological indicators positive for growth (GRO+) [1, 8]: 0%
- percentage of self-contained biological indicators positive for growth (GRO+) [1, 9]: 0%
- percentage of self-contained biological indicators positive for growth (GRO+) [1, 10]: 0%
- percentage of self-contained biological indicators positive for growth (GRO+) [1, 11]: 0%
- percentage of self-contained biological indicators positive for growth (GRO+) [1, 12]: 0%
- percentage of self-contained biological indicators positive for growth (GRO+) [1, 13]: 100%
- percentage of self-contained biological indicators positive for growth (GRO+) [1, 14]: 100%
- percentage of self-contained biological indicators positive for growth (GRO+) [1, 15]: 0%
- percentage of self-contained biological indicators positive for growth (GRO+) [1, 16]: 0%
- percentage of self-contained biological indicators positive for growth (GRO+) [1, 17]: 0%
- percentage of self-contained biological indicators positive for growth (GRO+) [1, 18]: 0%
- percentage of self-contained biological indicators positive for growth (GRO+) [1, 19]: 100%
- percentage of self-contained biological indicators positive for growth (GRO+) [1, 20]: 33%
- percentage of self-contained biological indicators positive for growth (GRO+) [1, 21]: 0%
- percentage of self-contained biological indicators positive for growth (GRO+) [1, 22]: 0%
- percentage of self-contained biological indicators positive for growth (GRO+) [1, 23]: 0%
- percentage of self-contained biological indicators positive for growth (GRO+) [1, 24]: 0%
- percentage of self-contained biological indicators positive for growth (GRO+) [1, 25]: 100%
- percentage of self-contained biological indicators positive for growth (GRO+) [1, 26]: 0%
- percentage of self-contained biological indicators positive for growth (GRO+) [1, 27]: 0%
- percentage of self-contained biological indicators positive for growth (GRO+) [1, 28]: 0%
- percentage of self-contained biological indicators positive for growth (GRO+) [1, 29]: 0%
- percentage of self-contained biological indicators positive for growth (GRO+) [1, 30]: 0%
- percentage of self-contained biological indicators positive for growth (GRO+) [1, 31]: 100%
- percentage of self-contained biological indicators positive for growth (GRO+) [1, 32]: 0%
- percentage of self-contained biological indicators positive for growth (GRO+) [1, 33]: 0%
- percentage of self-contained biological indicators positive for growth (GRO+) [1, 34]: 0%
- percentage of self-contained biological indicators positive for growth (GRO+) [1, 35]: 0%
- percentage of self-contained biological indicators positive for growth (GRO+) [1, 36]: 0%
- percentage of self-contained biological indicators positive for growth (GRO+) [1, 37]: 33%
- percentage of self-contained biological indicators positive for growth (GRO+) [1, 38]: 0%
- percentage of self-contained biological indicators positive for growth (GRO+) [1, 39]: 0%
- percentage of self-contained biological indicators positive for growth (GRO+) [1, 40]: 0%
- percentage of self-contained biological indicators positive for growth (GRO+) [1, 41]: 0%
- percentage of self-contained biological indicators positive for growth (GRO+) [1, 42]: 0%
- percentage of self-contained biological indicators positive for glucosidase enzyme activity (ENZ+) [2, 3]: 100%
- percentage of self-contained biological indicators positive for glucosidase enzyme activity (ENZ+) [2, 4]: 80%
- percentage of self-contained biological indicators positive for glucosidase enzyme activity (ENZ+) [2, 5]: 0%
- percentage of self-contained biological indicators positive for glucosidase enzyme activity (ENZ+) [2, 6]: 0%
- percentage of self-contained biological indicators positive for glucosidase enzyme activity (ENZ+) [2, 7]: 0%
- percentage of self-contained biological indicators positive for glucosidase enzyme activity (ENZ+) [2, 8]: 100%
- percentage of self-contained biological indicators positive for glucosidase enzyme activity (ENZ+) [2, 9]: 10%
- percentage of self-contained biological indicators positive for glucosidase enzyme activity (ENZ+) [2, 10]: 0%
- percentage of self-contained biological indicators positive for glucosidase enzyme activity (ENZ+) [2, 11]: 0%
- percentage of self-contained biological indicators positive for glucosidase enzyme activity (ENZ+) [2, 12]: 0%
- percentage of self-contained biological indicators positive for glucosidase enzyme activity (ENZ+) [2, 13]: 100%
- percentage of self-contained biological indicators positive for glucosidase enzyme activity (ENZ+) [2, 14]: 100%
- percentage of self-contained biological indicators positive for glucosidase enzyme activity (ENZ+) [2, 15]: 0%
- percentage of self-contained biological indicators positive for glucosidase enzyme activity (ENZ+) [2, 16]: 0%
- percentage of self-contained biological indicators positive for glucosidase enzyme activity (ENZ+) [2, 17]: 0%
- percentage of self-contained biological indicators positive for glucosidase enzyme activity (ENZ+) [2, 18]: 0%
- percentage of self-contained biological indicators positive for glucosidase enzyme activity (ENZ+) [2, 19]: 100%
- percentage of self-contained biological indicators positive for glucosidase enzyme activity (ENZ+) [2, 20]: 100%
- percentage of self-contained biological indicators positive for glucosidase enzyme activity (ENZ+) [2, 21]: 67%
- percentage of self-contained biological indicators positive for glucosidase enzyme activity (ENZ+) [2, 22]: 67%
- percentage of self-contained biological indicators positive for glucosidase enzyme activity (ENZ+) [2, 23]: 0%
- percentage of self-contained biological indicators positive for glucosidase enzyme activity (ENZ+) [2, 24]: 0%
- percentage of self-contained biological indicators positive for glucosidase enzyme activity (ENZ+) [2, 25]: 100%
- percentage of self-contained biological indicators positive for glucosidase enzyme activity (ENZ+) [2, 26]: 100%
- percentage of self-contained biological indicators positive for glucosidase enzyme activity (ENZ+) [2, 27]: 33%
- percentage of self-contained biological indicators positive for glucosidase enzyme activity (ENZ+) [2, 28]: 67%
- percentage of self-contained biological indicators positive for glucosidase enzyme activity (ENZ+) [2, 29]: 0%
- percentage of self-contained biological indicators positive for glucosidase enzyme activity (ENZ+) [2, 30]: 0%
- percentage of self-contained biological indicators positive for glucosidase enzyme activity (ENZ+) [2, 31]: 100%
- percentage of self-contained biological indicators positive for glucosidase enzyme activity (ENZ+) [2, 32]: 100%
- percentage of self-contained biological indicators positive for glucosidase enzyme activity (ENZ+) [2, 33]: 0%
- percentage of self-contained biological indicators positive for glucosidase enzyme activity (ENZ+) [2, 34]: 33%
- percentage of self-contained biological indicators positive for glucosidase enzyme activity (ENZ+) [2, 35]: 0%
- percentage of self-contained biological indicators positive for glucosidase enzyme activity (ENZ+) [2, 36]: 0%
- percentage of self-contained biological indicators positive for glucosidase enzyme activity (ENZ+) [2, 37]: 100%
- percentage of self-contained biological indicators positive for glucosidase enzyme activity (ENZ+) [2, 38]: 100%
- percentage of self-contained biological indicators positive for glucosidase enzyme activity (ENZ+) [2, 39]: 0%
- percentage of self-contained biological indicators positive for glucosidase enzyme activity (ENZ+) [2, 40]: 67%
- percentage of self-contained biological indicators positive for glucosidase enzyme activity (ENZ+) [2, 41]: 0%
- percentage of self-contained biological indicators positive for glucosidase enzyme activity (ENZ+) [2, 42]: 0%
